Assay results published in patent US20090226907A1, “ASSAY FOR DETECTION OF TELOMERASE ACTIVITY” (Sienna Cancer Diagnostics Limited, priority 2005, published 2009).
{SH-C6} = thiol hexyl linker

Target: T1, telomerase (Homo sapiens, UniProt O14746)
T1 construct: showing the effect of TBT oligonucleotide length in HEK293T cell lysates; endogenous in cells; host or cells: HEK293T cell lysate (CHAPS lysis buffer)
Assay: TBT telomerase assay: effect of oligonucleotide length in HEK293T cell lysates
Format: biochemical
Conditions: luminescence, compared with short (0.5 repeat) and 2.5 repeat versions, FIG. 16
Description: FIG. 16 is a graphical representation showing the effect of TBT oligonucleotide length in HEK293T cell lysates. […]

T1 sequence (O14746 whole entry): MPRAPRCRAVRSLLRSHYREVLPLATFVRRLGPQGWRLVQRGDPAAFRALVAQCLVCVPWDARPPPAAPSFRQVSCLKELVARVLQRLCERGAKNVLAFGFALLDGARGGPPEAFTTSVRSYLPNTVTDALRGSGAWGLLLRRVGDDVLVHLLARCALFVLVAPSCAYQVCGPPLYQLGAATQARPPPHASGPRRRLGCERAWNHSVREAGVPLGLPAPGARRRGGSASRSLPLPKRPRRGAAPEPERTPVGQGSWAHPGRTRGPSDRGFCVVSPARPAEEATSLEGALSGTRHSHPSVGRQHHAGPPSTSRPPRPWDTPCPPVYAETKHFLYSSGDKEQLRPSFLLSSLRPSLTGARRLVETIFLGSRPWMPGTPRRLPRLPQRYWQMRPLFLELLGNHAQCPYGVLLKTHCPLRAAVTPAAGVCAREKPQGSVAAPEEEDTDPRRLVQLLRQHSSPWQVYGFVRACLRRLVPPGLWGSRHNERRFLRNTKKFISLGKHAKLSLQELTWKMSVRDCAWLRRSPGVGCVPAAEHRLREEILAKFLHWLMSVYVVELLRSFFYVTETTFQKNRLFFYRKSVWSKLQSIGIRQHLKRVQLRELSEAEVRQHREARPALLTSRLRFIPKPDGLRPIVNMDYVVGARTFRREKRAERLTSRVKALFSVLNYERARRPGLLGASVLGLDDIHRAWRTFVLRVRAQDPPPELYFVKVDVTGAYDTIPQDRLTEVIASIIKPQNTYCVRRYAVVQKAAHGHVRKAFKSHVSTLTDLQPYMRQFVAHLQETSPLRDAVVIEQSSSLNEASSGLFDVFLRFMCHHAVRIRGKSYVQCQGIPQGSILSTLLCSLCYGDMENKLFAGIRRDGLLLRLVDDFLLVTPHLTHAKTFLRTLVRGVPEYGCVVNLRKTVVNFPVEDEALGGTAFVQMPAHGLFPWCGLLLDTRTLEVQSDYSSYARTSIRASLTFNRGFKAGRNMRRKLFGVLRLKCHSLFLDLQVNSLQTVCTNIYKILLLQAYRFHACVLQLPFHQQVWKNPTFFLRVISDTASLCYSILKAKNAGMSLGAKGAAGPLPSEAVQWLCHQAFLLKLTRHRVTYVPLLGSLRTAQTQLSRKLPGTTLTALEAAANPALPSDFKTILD
T1 sequence (O60832 whole entry partner): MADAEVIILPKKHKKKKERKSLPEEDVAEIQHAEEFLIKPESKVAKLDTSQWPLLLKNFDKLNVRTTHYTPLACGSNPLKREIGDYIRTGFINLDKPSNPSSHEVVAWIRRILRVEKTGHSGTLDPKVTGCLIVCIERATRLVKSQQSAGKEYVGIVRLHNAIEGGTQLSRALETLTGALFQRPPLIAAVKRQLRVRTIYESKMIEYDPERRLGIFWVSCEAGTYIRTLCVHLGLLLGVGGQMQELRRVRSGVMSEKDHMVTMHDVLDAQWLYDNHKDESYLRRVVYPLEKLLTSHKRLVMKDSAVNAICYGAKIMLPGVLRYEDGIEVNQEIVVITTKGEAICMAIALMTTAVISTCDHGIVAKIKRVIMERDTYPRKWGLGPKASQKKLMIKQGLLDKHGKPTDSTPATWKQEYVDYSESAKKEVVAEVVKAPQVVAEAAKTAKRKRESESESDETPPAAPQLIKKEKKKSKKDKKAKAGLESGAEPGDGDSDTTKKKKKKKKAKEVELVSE
T1 sequence (Q9NPE3 whole entry partner): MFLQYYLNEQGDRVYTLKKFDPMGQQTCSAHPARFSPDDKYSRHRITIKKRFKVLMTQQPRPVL
T1 sequence (Q9NX24 whole entry partner): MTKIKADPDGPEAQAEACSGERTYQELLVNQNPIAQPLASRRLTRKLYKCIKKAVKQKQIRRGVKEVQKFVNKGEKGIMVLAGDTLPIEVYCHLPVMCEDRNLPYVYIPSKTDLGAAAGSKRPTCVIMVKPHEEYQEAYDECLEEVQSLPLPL
T1 sequence (Q9NY12 whole entry partner): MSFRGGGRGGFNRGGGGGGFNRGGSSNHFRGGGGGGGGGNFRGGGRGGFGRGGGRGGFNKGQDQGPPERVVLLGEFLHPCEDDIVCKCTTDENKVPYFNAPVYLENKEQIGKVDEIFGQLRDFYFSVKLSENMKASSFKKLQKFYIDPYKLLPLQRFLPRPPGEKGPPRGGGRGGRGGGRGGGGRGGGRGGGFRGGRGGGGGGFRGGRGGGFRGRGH
T1 sequence (Q9BUR4 whole entry partner): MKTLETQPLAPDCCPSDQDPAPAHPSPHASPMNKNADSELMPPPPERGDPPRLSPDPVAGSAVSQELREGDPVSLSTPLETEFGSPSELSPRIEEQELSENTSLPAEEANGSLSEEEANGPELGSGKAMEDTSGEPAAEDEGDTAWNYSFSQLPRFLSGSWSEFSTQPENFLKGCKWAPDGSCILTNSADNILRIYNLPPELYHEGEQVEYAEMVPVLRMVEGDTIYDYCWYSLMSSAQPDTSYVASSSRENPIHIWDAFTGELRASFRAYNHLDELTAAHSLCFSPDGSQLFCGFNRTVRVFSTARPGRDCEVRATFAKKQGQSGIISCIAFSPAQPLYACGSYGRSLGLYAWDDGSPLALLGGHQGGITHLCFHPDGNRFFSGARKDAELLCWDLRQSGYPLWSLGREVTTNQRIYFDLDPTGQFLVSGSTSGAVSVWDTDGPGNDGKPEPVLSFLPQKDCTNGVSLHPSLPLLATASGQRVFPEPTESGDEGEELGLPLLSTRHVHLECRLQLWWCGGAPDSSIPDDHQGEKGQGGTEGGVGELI

## 5′SH-(CH2)6-TTTTTTAATCCGTCGAGCAGAGTTAGGGTTAGGGTTAGG GTTAGGGTTAG (DNA TTTTTTAATCCGTCGAGCAGAGTTAGGGTTAGGGTTAGGGTTAGGGTTAG; DNA, 5' {SH-C6}, backbone and methylation of C not given here; bead-immobilized telomerase substrate oligo; listed as Homo sapiens) [longer version]
  absolute signal relative to the background signal (no telomerase extract): better absolute signal relative to the background signal
